Measurements taken from BindingDB's records for doi:10.1021/acs.biochem.6b01152 (University of California San Diego, 2017).

How the values were obtained:
Experiment in all cases: 8-[Fluo]-cAMP Fluorescence Polarization Binding Assay
[1] = target: cAMP-dependent protein kinase type I-alpha regulatory subunit [R241A] (Homo sapiens, UniProt P10644, R241A)
Description: (§1) The ability of the R subunit basic patch mutants to bind cAMP in the absence of the C subunit was tested using the fluorescent cAMP analogue, 8-[fluo]-cAMP (Biolog), used at a final concentration of 10 nM. Wells were titrated with a rangeof R subunit concentrations (from 0 to 125 nM), which were diluted with FP assay buffer.

[2] = target: cAMP-dependent protein kinase type I-alpha regulatory subunit [K244A] (Homo sapiens, UniProt P10644, K244A)
Description: as §1

[3] = target: cAMP-dependent protein kinase type I-alpha regulatory subunit [K242A] (Homo sapiens, UniProt P10644, K242A)
Description: as §1

[4] = target: cAMP-dependent protein kinase type I-alpha regulatory subunit [R243A] (Homo sapiens, UniProt P10644, R243A)
Description: as §1

[5] = target: cAMP-dependent protein kinase type I-alpha regulatory subunit (Homo sapiens, UniProt P10644)
Description: as §1

Sequence of cAMP-dependent protein kinase type I-alpha regulatory subunit [K244A] (P10644 whole entry K244A): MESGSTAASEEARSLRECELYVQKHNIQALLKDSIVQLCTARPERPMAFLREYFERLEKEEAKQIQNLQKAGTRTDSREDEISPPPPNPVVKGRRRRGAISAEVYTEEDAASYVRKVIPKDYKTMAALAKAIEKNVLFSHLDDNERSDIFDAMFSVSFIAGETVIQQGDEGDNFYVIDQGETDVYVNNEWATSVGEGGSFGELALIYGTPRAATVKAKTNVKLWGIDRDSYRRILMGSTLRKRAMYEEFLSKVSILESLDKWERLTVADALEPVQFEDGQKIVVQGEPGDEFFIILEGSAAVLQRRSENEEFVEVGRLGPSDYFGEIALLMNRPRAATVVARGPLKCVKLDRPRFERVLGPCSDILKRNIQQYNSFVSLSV
Sequence of cAMP-dependent protein kinase type I-alpha regulatory subunit [K242A] (P10644 whole entry K242A): as the sequence (P10644 whole entry K244A) above, with K242A, A244K counted along it
Sequence of cAMP-dependent protein kinase type I-alpha regulatory subunit (P10644 whole entry): as the sequence (P10644 whole entry K244A) above, with A244K counted along it
Sequence of cAMP-dependent protein kinase type I-alpha regulatory subunit [R241A] (P10644 whole entry R241A): as the sequence (P10644 whole entry K244A) above, with R241A, A244K counted along it
Sequence of cAMP-dependent protein kinase type I-alpha regulatory subunit [R243A] (P10644 whole entry R243A): as the sequence (P10644 whole entry K244A) above, with R243A, A244K counted along it

- Kd [1]: 6.72 nM
- Kd [2]: 7.71 nM
- Kd [3]: 7.32 nM
- Kd [4]: 7.29 nM
- Kd [5]: 7.3 nM
Structure (SMILES): Nc1ncnc2c1nc(SCCNC(=S)Nc1ccc(-c3c4ccc(=O)cc-4oc4cc(O)ccc34)c(C(=O)O)c1)n2C1OC2COP(=O)(O)OC2C1O (stereo not given) [8-[Fluo]-cAMP]
